Like-named read-outs stand apart in the source and are kept apart here.
Legend:
Cruzain = Cruzain (Trypanosoma cruzi, UniProt P25779); assay: Cysteine protease inhibition, progress curve method, cruzain; type: biochemical; details: 4 uM Ac-Lys-Glu-Lys-Leu-Arg-AMC, 100 mM Na acetate pH 5.5, 5 mM cysteine
Summary of the method: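 Kinetic constants from AMC-release progress curves over 20–30 min at ambient temperature in 100 mM Na acetate pH 5.5, 5 mM cysteine, 2% DMSO; enzyme added last to inhibitor plus substrate. Substrates: 10 uM Cbz-Phe-Arg-AMC (Leishmania, Schistosoma), 10 uM Cbz-Leu-Arg-AMC (falcipain), 4 uM Ac-Lys-Glu-Lys-Leu-Arg-AMC (cruzain). Ki,app from linear curves; time-dependent inhibition as kobs/[I].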

Rhodazain = Rhodazain (Trypanosoma brucei rhodesiense, UniProt Q95PM0); assay: Cysteine protease inhibition, progress curve method, rhodazain; type: biochemical, Trypanosoma brucei rhodesiensi; details: 10 uM Cbz-Leu-Arg-AMC, 100 mM Na acetate pH 5.5, 5 mM cysteine
Rhodazain, sequence (Q95PM0 entry or part of it): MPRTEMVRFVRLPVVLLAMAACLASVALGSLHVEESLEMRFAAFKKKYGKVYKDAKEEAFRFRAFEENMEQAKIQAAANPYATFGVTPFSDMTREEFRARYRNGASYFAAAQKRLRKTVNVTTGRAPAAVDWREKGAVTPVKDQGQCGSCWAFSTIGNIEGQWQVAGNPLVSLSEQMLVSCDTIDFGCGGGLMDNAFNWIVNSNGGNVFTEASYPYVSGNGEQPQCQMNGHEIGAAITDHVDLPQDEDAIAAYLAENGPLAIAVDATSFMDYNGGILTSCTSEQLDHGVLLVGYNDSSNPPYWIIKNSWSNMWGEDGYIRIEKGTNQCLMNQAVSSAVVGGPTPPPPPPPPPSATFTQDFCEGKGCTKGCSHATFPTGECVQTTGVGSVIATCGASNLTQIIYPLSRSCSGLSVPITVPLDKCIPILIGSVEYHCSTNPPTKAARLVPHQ
Protocol: Standard assay conditions for the determination of kinetic constants used 10 uM fluorogenic peptide substrate, Cbz-Phe-Arg-AMC for the cysteine proteases from Leishmania spp and Schistosoma Mansoni, Cbz-Leu-Arg-AMC for the cysteine proteases from Plasmodium falciparum and Trypanosoma brucei rhodesiensi, and Ac-Lys-Glu-Lys-Leu-Arg-AMC (4 uM final substrate concentration) for the cysteine protease from Trypoanosoma cruzi, and were determined in 100 mM Na acetate at pH 5.5 containing 5 mM cysteine. Stock substrate solutions were prepared at concentrations of […] in DMSO with 10 uM (4 uM for Ac-Lys-Glu-Lys-Leu-Arg-AMC) final substrate concentration in the assays. The final DMSO concentration was 2% and the final volume was 100 uL. All assays were conducted at ambient temperature. Product progress curves were generated over 20 to 30 minutes following formation of AMC product.
Potential inhibitors were evaluated using the progress curve method. Assays were carried out in the presence of variable concentrations of test compound. Reactions were initiated by addition of enzyme to buffered solutions of inhibitor and substrate. Data analysis was conducted according to one of two procedures depending on the appearance of the progress curves in the presence of inhibitors. For those compounds whose progress curves were linear, apparent inhibition constants (Ki,app) were calculated according to equation 1 (Brandt et al., Biochemitsry, 1989, 28, 140):
v=VmA/[Ka(1+I/Ki,app)+A] (1)
Where v is the velocity of the reaction with maximal velocity Vm, A is the concentration of substrate with Michaelis constant of Ka, and I is the concentration of inhibitor.
[AMC]=vsst+(v0−vss)[1−exp (−kobst)]/kobs (2)
Where [AMC] is the concentration of product formed over time t, v0 is the initial reaction velocity and vss is the final steady state rate. Values for kobs were then analyzed as a linear function of inhibitor concentration to generate an apparent second order rate constant (kobs/inhibitor concentration or kobs/[I]) describing the time-dependent inhibition. A complete discussion of this kinetic treatment has been fully described (Morrison et al., Adv. Enzymol. Relat. Areas Mol. Biol., 1988, 61, 201).
Exemplary inhibition data for the compounds used in the present method collected in accordance with the above-described procedure are listed in Table I.

Cruzain, sequence (P25779 123-337): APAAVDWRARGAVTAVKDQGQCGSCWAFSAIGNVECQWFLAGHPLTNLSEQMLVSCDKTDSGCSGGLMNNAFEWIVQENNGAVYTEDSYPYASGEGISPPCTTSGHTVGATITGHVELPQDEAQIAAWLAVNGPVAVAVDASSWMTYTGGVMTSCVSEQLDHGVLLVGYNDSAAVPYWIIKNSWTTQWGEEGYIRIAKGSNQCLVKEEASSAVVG

CC(C)C[C@@H](NC(=O)c1ccc(Br)o1)C(=O)N[C@@H]1CCCN(S(=O)(=O)c2cccc[n+]2[O-])CC1=O [Example 50, 5-Bromo-furan-2-carboxylic acid {(S)-3-methyl-1-[3-oxo-1-(1-oxy-pyridine-2-sulfonyl)-azepan-4-ylcarbamoyl]-butyl}amide]
Ki (Cruzain; read-out: Cruzain Ki): 10 nM | Ki (Rhodazain; Rhodazain Ki (nM)): 2.1 nM

5-(2-Morpholin-4-yl-ethoxy)-benzofuran-2-carboxylic acid {(S)-3-methyl-1-[3-oxo-(1-oxy-pyridine2-sulfonyl)-azepan-4-ylcarbamoyl]-buty}-amide [Example 116]
Ki (Cruzain; read-out: Cruzain Ki): 4.4 nM | Ki (Rhodazain; read-out: Rhodazain Ki): 3.2 nM

CC(C)C[C@H](NC(=O)c1cccc2ccccc12)C(=O)N[C@H]1CCCN(S(=O)(=O)c2ccccn2)CC1=O [Example 184, Naphthalene-1-carboxylic acid {(S)-3-methyl-1-[3-oxo-1-(pyridine-2-sulfonyl)-azepan-4-ylcarbamoyl]-butyl}-amide]
Ki (Cruzain; Cruzain Ki nM): 2.1 nM | Ki (Rhodazain; Rhodazain Ki (nM)): 1.8 nM

CC(C)C[C@H](NC(=O)c1cc2ccccc2s1)C(=O)N[C@H]1CCCN(C(=O)Nc2ccccc2F)CC1=O (stereo in doubt) [Example 215, Benzo[b]thiophene-2-carboxylic acid {(S)-1-[1-(2-fluoro-phenylcarbamoyl)-3-oxo-azepan-4-ylcarbamoyl]-3-methyl-butyl}-amide]
Ki (Cruzain; read-out: Cruzain Ki): 6.4 nM | Ki (Rhodazain; Rhodazain Ki (nM)): 3.6 nM

CC(C)C[C@@H](NC(=O)c1ccnc2ccccc12)C(=O)N[C@@H]1CCCN(S(=O)(=O)c2ccccn2)CC1=O (stereo in doubt) [Example 26, Quinoline-4-carboxylic acid {(S)-3-methyl-1-[3-oxo-1-(pyridine-2-sulfonyl)-azepan-4-ylcarbamoyl]-butyl}amide]
Ki (Cruzain; read-out: Cruzain Ki): 9.4 nM | Ki (Rhodazain; Rhodazain Ki (nM)): 8.1 nM

CC(C)C[C@H](NC(=O)c1cc2ccccc2o1)C(=O)NC1CCCN(S(=O)(=O)c2cccc(F)c2)CC1=O (stereo partly drawn) [Example 183, Benzofuran-2-carboxylic acid {(S)-1-[-(3-fluoro-benzensulfonyl)-3-oxo-azepan-4-ylcarbamoyl]-3-methyl-1-butyl}-amide]
Ki (Cruzain; read-out: Cruzain Ki): 7.1 nM | Ki (Rhodazain; Rhodazain Ki (nM)): 6.5 nM

COc1cccc2oc(C(=O)N[C@@H](CC(C)C)C(=O)NC3CCCN(S(=O)(=O)c4cccc[n+]4[O-])CC3=O)c(C)c12 (stereo partly drawn) [Example 208, 4-Methoxy-3-methyl-benzofuran-2-carboxylic acid {(S)-3-methyl-1-[3-oxo-1-(1-oxy-pyridine-2-sulfonyl)-azepan-4-ylcarbamoyl]-butyl}-amide]
Ki (Cruzain; read-out: Cruzain Ki): 10 nM | Ki (Rhodazain; read-out: Rhodazain Ki): 4.2 nM

CC(C)C[C@H](NC(=O)c1ccc2ccccc2n1)C(=O)N[C@H]1CCCN(C(=O)Nc2ccccc2F)CC1=O [Example 219, Quinoline-2-carboxylic acid {(S)-1-[1-(2-fluoro-phenylcarbamoyl)-3-oxo-azepan-4-ylcarbamoyl]-3-methyl-butyl}-amide]
Ki (Cruzain; read-out: Cruzain Ki): 8.4 nM | Ki (Rhodazain; Rhodazain Ki (nM)): 5.5 nM

COc1ccc2c(C)c(C(=O)NC(CC(C)C)C(=O)N[C@H]3CCN(S(=O)(=O)c4cccc[n+]4[O-])CCC3=O)oc2c1 (single isomer, unassigned) [Example 211]
Ki (Cruzain; read-out: Cruzain Ki): 10 nM | Ki (Rhodazain; Rhodazain Ki (nM)): 2.8 nM

Cc1c(C(=O)N[C@@H](CC(C)C)C(=O)N[C@H]2CCCN(C(=O)Nc3ccccc3F)CC2=O)oc2ccccc12 [Example 216, 3-Methyl-benzofuran-2-carboxylic acid {(S)-1-[1-(2-fluoro-phenylcarbamoyl)-3-oxo-azepan-4-ylcarbamoyl]-3-methyl-butyl}-amide]
Ki (Cruzain; read-out: Cruzain Ki): 6.9 nM | Ki (Rhodazain; Rhodazain Ki (nM)): 3.4 nM

Cc1c(C(=O)N[C@H](CC(C)C)C(=O)N[C@H]2CCCN(S(=O)(=O)c3cccc[n+]3[O-])CC2=O)oc2ccc(F)cc12 (single isomer, unassigned) [Example 195]
Ki (Cruzain; read-out: Cruzain Ki): 9.4 nM | Ki (Rhodazain; Rhodazain Ki (nM)): 6.6 nM

COc1ccc2oc(C(=O)N[C@@H](CC(C)C)C(=O)N[C@H]3CCN(S(=O)(=O)c4cccc[n+]4[O-])CCC3=O)c(C)c2c1 [Example 205, 5-Methoxy-3-methyl-benzofuran-2-carboxylic acid {(S)-3-methyl-1-[3-oxo-1-(1-oxy-pyridine-2-sulfonyl)-azepan-4-ylcarbamoyl]-butyl}-amide]
Ki (Cruzain; read-out: Cruzain Ki): 5.2 nM | Ki (Rhodazain; Rhodazain Ki (nM)): 3.2 nM

Cc1c(C(=O)N[C@@H](CC(C)C)C(=O)N[C@H]2CCCN(S(=O)(=O)c3ccccc3F)CC2=O)oc2ccccc12 [Example 94, 3-methylbenzofuran-2-carboxylic acid-{(S)-1-[1-(2-fluoro-benzenesulfonyl)-3-oxo-azepan-4-ylcarbamoyl]-3-methyl-butyl}-amide]
Ki (Cruzain; read-out: Cruzain Ki): 8.6 nM | Ki (Rhodazain; Rhodazain Ki (nM)): 9.4 nM

Cc1ccc(C(=O)NC(CC(C)C)C(=O)N[C@@H]2CCCN(S(=O)(=O)c3cccc[n+]3[O-])CC2=O)s1 (stereo partly drawn) [Example 79, 5-Methyl-thiophene-2-carboxylic acid {(S)-3-methyl-1-[3-oxo-1-(1-oxy-1pyridine-2-sulfonyl)-azepan-4-ylcarbamoyl]-butyl}amide]
Ki (Cruzain; read-out: Cruzain Ki): 16 nM | Ki (Rhodazain; Rhodazain Ki (nM)): 8 nM

Cc1c(C(=O)N[C@@H](CC(C)C)C(=O)NC2CCCN(S(=O)(=O)c3ccccn3)CC2=O)oc2ccccc12 (stereo partly drawn) [Example 70, 3-Methyl-benzofuran-2-carboxylic acid {(S)-3-methyl-1-[3-oxo-1-(pyridine-2-sulfonyl)-azepan-4-ylcarbamoyl]-butyl}amide]
Ki (Cruzain; read-out: Cruzain Ki): 6.6 nM | Ki (Rhodazain; Rhodazain Ki (nM)): 5.5 nM

Cc1cccnc1S(=O)(=O)N1CCC[C@@H](NC(=O)[C@@H](CC(C)C)NC(=O)c2oc3ccccc3c2C)C(=O)C1 (stereo in doubt) [Example 161, 3-Methyl-benzofuran-2-carboxylic acid {(S)-3-methyl-1-[1-(3-methyl-pyridine-2-sulfonyl)-3-oxo-azepan-4-ylcarbamoyl]-butyl}amide]
Ki (Cruzain; read-out: Cruzain Ki): 7.8 nM | Ki (Rhodazain; Rhodazain Ki (nM)): 6.4 nM

CC(C)CC(NC(=O)c1cc2ccccc2n1C)C(=O)NC1CCCN(S(=O)(=O)c2cccs2)CC1=O [Example 148, 1-Methyl-1-H-indole-2-carboxylic acid-{(S)-3-methyl-1-[3-oxo-1-(thiophene-2-sulfonyl)-azepan-4-ylcarbamoyl]-butyl}-amide]
Ki (Cruzain; read-out: Cruzain Ki): 8.2 nM | Ki (Rhodazain; Rhodazain Ki (nM)): 23 nM

CC(C)C[C@H](NC(=O)c1cc2ccccc2o1)C(=O)N[C@H]1C[C@H](C)CN(S(=O)(=O)c2ccccn2)CC1=O (single isomer, unassigned) [Example 167]
Ki (Cruzain; read-out: Cruzain Ki): 3.5 nM | Ki (Rhodazain; Rhodazain Ki (nM)): 4 nM

COc1cccc2cc(C(=O)N[C@@H](CC(C)C)C(=O)N[C@H]3CCCN(S(=O)(=O)c4nccs4)CC3=O)oc12 [Example 125]
Ki (Cruzain; read-out: Cruzain Ki): 4 nM | Ki (Rhodazain; Rhodazain Ki (nM)): 4.1 nM

COc1ccc(C(=O)N[C@H](CC(C)C)C(=O)N[C@@H]2CCCN(S(=O)(=O)c3ccccc3C#N)CC2=O)cc1OC [Example 120]
Ki (Cruzain; read-out: Cruzain Ki): 9.9 nM | Ki (Rhodazain; Rhodazain Ki (nM)): 11 nM

CC(C)C[C@@H](NC(=O)c1cc2cc(OCC[N+]3([O-])CCOCC3)ccc2o1)C(=O)N[C@@H]1CCCN(S(=O)(=O)c2ccccn2)CC1=O [Example 43, 5-(4-Oxy-morpholino-4-yl-ethoxy)-benzofuran-2-carboxylic acid {(S)-3-methyl-1-[3-oxo-1-(pyridine-2-sulfonyl)-azepan-4-ylcarbamoyl]-butyl}amide]
Ki (Cruzain; read-out: Cruzain Ki): 3.6 nM | Ki (Rhodazain; Rhodazain Ki (nM)): 4.9 nM

Cc1c(C(=O)N[C@H](CC(C)C)C(=O)N[C@@H]2CCCN(S(=O)(=O)c3cccc[n+]3[O-])CC2=O)oc2ccccc12 (single isomer, unassigned) [Example 99]
Ki (Cruzain; read-out: Cruzain Ki): 7.8 nM | Ki (Rhodazain; Rhodazain Ki (nM)): 5.1 nM

CC(C)C[C@@H](NC(=O)c1ccc2ccccc2n1)C(=O)N[C@@H]1CCCN(S(=O)(=O)c2ccccn2)CC1=O (single isomer, unassigned) [Example 151]
Ki (Cruzain; read-out: Cruzain Ki): 7.1 nM | Ki (Rhodazain; Rhodazain Ki (nM)): 6.1 nM

CC(C)C[C@@H](NC(=O)c1cc2ccccc2s1)C(=O)N[C@@H]1CCCN(S(=O)(=O)c2ccccn2)CC1=O (stereo in doubt) [Example 31, Benzo[b]thiophene-2-carboxylic acid {(S)-3-methyl-1-[3-oxo-1-(pyridine-2-sulfonyl)-azepan-4-ylcarbamoyl]-butyl}amide]
Ki (Cruzain; read-out: Cruzain Ki): 7.2 nM | Ki (Rhodazain; Rhodazain Ki (nM)): 5 nM
